Laboratory results: PMC8372404 (Frontiers in Neuroscience, 2021)
Where a SMILES comes first, the peptide text is derived from it.

Columns and labels:
[1] = target: [3H]-LCGA-17 binding site in rat brain membranes (putative α2δ); test: [3H]-LCGA-17 radioligand competition binding assay; conditions: rat brain membranes
BALB/c mice [2] = test: Elevated plus maze (EPM); format: in vivo
Description: The open field test (OFT) was used to assess locomotion. The total distance traveled in a 5 min session was recorded using Ethovision XT14 ([Prut and Belzung, 2003]). The elevated plus maze (EPM) and the marble burying test (MBT) were used to assess anxiolytic-like drug activity. For the EPM ([Pellow et al., 1985]), the percentage of time spent in the open arms, the percentage of open arm entries, and the number of total arm entries during a 5-min session were recorded using Ethovision. “Anxiety Index” (AI), an integrative behavioral measure in the EPM was calculated as follows: 100 × {1 − [(time spent on open arms/total time on the maze)/2 + (number of entries to the open arms/total exploration on the maze)/2]} ([Cohen et al., 2011]). The MBT ([Njung’e and Handley, 1991]) was carried out in a 19 × 29 × 13 cm cage filled 5 cm deep with wood-chip bedding. Twenty marbles (5.2 g, 15 mm diameter, randomly colored) were evenly placed on the surface of the bedding in four rows of five pieces. At the end of a 30 min test, the animal was removed, and the marbles buried in bedding by at least two-thirds were recorded. […] The forced swim test (FST) was used for a preliminary assessment of antidepressant drug activity as described ([Colelli et al., 2014]). Briefly, on day one the mice were exposed to a 10 min pre-swim in a cylinder filled with 24 ± 1°C water. The next day they were re-exposed to the same apparatus for a 5 min test session with the behavior video recorded. The total time spent immobile was quantitated off-line visually. The interval between sequential behavioral tests was 2–3 days with the sequence OFT, EPM, MBT, and FST. All the testing and data analyses were performed by experimenters blind to treatment.

Danio rerio [3] = test: Novel tank test (NTT); format: in vivo; conditions: exp group
Description: (§1) Control groups were treated in parallel with vehicle alone. For drug injection, the fish were anesthetized briefly by placing them in 10°C water. The vehicle controls were tested in parallel.
(§2) Behavioral testing was initiated 10 min after drug injection, starting with the novel tank test (NTT), followed immediately thereafter by the light–dark box (LDB) and the social preference test (SPT). The NTT was adapted from [Maximino et al. (2013)] with the behavior video-recorded and the data processed using EthoVision XT14 (Noldus). The distance traveled, speed, number of visits to the bottom, middle and top thirds of the aquarium, respectively, and the times spent in each of these zones during the initial 5 min in the tank were recorded. A decreased time spent at the surface of the NTT apparatus reflects a reduction in exploratory behavior or increased hiding motivation ([Sackerman et al., 2010]). The behavior in the LDB ([Maximino et al., 2011]) and SPT ([Parker et al., 2014]) was video recorded and processed using RealTimer (Open Science LCC, Russia). The fish were added to the center zone of a three-zone aquarium and allowed to adapt for 1–2 min before removal of the septa separating the center from the flanking zones. The time spent and the number of visits to the light and dark flanking zones and the latency to enter the lit zone were recorded during a 5-min session. Stress of fish is associated with increased time spent in the dark compartment (scototaxis) ([Maximino et al., 2011]). For the SPT, the residence time and the number of visits to the three equally sized zones (near the shoal, in the center zone of the aquarium, and near the wall opposite to the shoal) were assessed during a 5-min session. Increased shoal preference (shoaling reflex) is thought to represent a protective response to a predator ([Nguyen et al., 2014]). All behavioral testing was done in the light phase using 500 lux (NTT, LDB) or 200 lux (SPT) illumination.

Danio rerio [4] = test: Light–dark box (LDB); format: in vivo; conditions: for LDB. Time spent in lit compartment, Median: 5 min session, exp group
Description: as §1, §2

BALB/c mice [5] = test: Marble burying test (MBT); format: in vivo; conditions: diazepam 0.75 mg/kg
Description: (§3) The open field test (OFT) was used to assess locomotion. The total distance traveled in a 5 min session was recorded using Ethovision XT14 ([Prut and Belzung, 2003]). The elevated plus maze (EPM) and the marble burying test (MBT) were used to assess anxiolytic-like drug activity. For the EPM ([Pellow et al., 1985]), the percentage of time spent in the open arms, the percentage of open arm entries, and the number of total arm entries during a 5-min session were recorded using Ethovision. “Anxiety Index” (AI), an integrative behavioral measure in the EPM was calculated as follows: 100 × {1 − [(time spent on open arms/total time on the maze)/2 + (number of entries to the open arms/total exploration on the maze)/2]} ([Cohen et al., 2011]). The MBT ([Njung’e and Handley, 1991]) was carried out in a 19 × 29 × 13 cm cage filled 5 cm deep with wood-chip bedding. Twenty marbles (5.2 g, 15 mm diameter, randomly colored) were evenly placed on the surface of the bedding in four rows of five pieces. At the end of a 30 min test, the animal was removed, and the marbles buried in bedding by at least two-thirds were recorded. […] The next day they were re-exposed to the same apparatus for a 5 min test session with the behavior video recorded. The total time spent immobile was quantitated off-line visually. […]

BALB/c mice [6] = test: Forced swim test (FST); format: in vivo; conditions: LCGA-17 5 mg/kg (none of the other dosages); diazepam 0.75 mg/kg
Description: as §3

BALB/c mice [7] = test: Open field test (OFT); format: in vivo; conditions: diazepam 0.75 mg/kg
Description: as §3

Danio rerio [8] = test: Social preference test (SPT); format: in vivo; conditions: for SPT. Time spent out of shoaling zone, Median: 5 min session, exp group
Description: as §1, §2

[9] = Preliminary pharmacokinetic studies; format: in vivo; conditions: preliminary and ongoing pharmacokinetic studies
[10] = LCGA-17 20 mg/kg + bicuculline 5 mg/kg
[11] = bicuculline study: LCGA-17 20 mg/kg or bicuculline 5 mg/kg alone
[12] = LCGA-17 groups 1, 5, 10, 20 mg/kg combined

In the case of `CN1CCc2cc3c(cc2[C@H]1[C@@H]1OC(=O)c2c1ccc1c2OCO1)OCO3` [Bicuculline], the IC50 ([1]; competition of [3H]-LCGA-17 (16 nM) binding, Table S1) is reported as > 100 µM, the “cross-reactivity with / competition at the [3H]-LCGA-17 binding site” value ([1]; result in words) is reported as “no cross-reactivity” and the “EPM, effect of co-administered bicuculline on the LCGA-17 effect on % time on open arms” value (BALB/c mice [2]; [10]) is reported as “completely blocked”. The “EPM, effect of co-administered bicuculline on the LCGA-17 effect on open arm entries” value (BALB/c mice [2]; [10]) was “reduced the LCGA-17 effect”, the “EPM, effect of cotreatment with bicuculline on the LCGA-17 effect on AI” value (BALB/c mice [2]; [10]) was “reversed” and the “EPM, effect on open arm entries, single agent” value (BALB/c mice [2]; bicuculline 5 mg/kg alone) was “without effects”. For the same compound, the “EPM, effect on total arm entries” value (BALB/c mice [2]; bicuculline 5 mg/kg main effect, post hoc pairwise comparisons not significant) was “slightly reduced”, the “EPM, effect on % time on open arms, single agent” value (BALB/c mice [2]; [11]) was “no effect” and the “EPM, effect on Anxiety Index (AI), single agent” value (BALB/c mice [2]; [11]) was “without effects”.

With `CN1C(=O)CN=C(c2ccccc2)c2cc(Cl)ccc21` [Diazepam] the “NTT. Distance traveled, Median” value (Danio rerio [3]; 1.25 mg/kg) was 887 cm, the “NTT. Distance traveled, Median” value (Danio rerio [3]; 5 mg/kg) was 595 cm and the “LDB. Time spent in lit compartment, Median” value (Danio rerio [4]; 1.25 mg/kg) was 21 s. The “LDB. Time spent in lit compartment, Median” value (Danio rerio [4]; 5 mg/kg) was 177 s, the “LDB, effect on time spent in the lit compartment vs vehicle” value (Danio rerio [4]; most informative dosage, Figure 2C) was “anxiolytic-like effect” and the “MBT, effect on number of marbles buried vs vehicle” value (BALB/c mice [5]; LCGA-17 5, 20 mg/kg, 30 min test) was “reduced”. For the same compound, the “MBT, effect on number of marbles buried vs vehicle” value (BALB/c mice [5]; [12]) was “reduced”, the “EPM, effect on percentage of time spent on open arms vs vehicle” value (BALB/c mice [2]; mouse, in vivo) was “increased” and the “FST, effect on total time spent immobile vs vehicle” value (BALB/c mice [6]) was “failed to affect the behavior”. The “OFT, effect on distance traveled vs vehicle” value (BALB/c mice [7]; LCGA-17 5, 20 mg/ml as printed, 5 min session) was “modestly increased”, the “OFT, effect on distance traveled vs vehicle” value (BALB/c mice [7]; [12]) was “increased” and the “SPT. Time spent out of shoaling zone, Median” value (Danio rerio [8]; 1.25 mg/kg) was 20 s. For the same compound, the “SPT. Time spent out of shoaling zone, Median” value (Danio rerio [8]; 5 mg/kg) was 21 s and the “SPT, effect on time spent out of the shoaling zone vs vehicle” value (Danio rerio [8]; most informative dosage, Figure 2D) was “anxiolytic-like effect”.

In the case of `NC(=O)CC[C@H](NC(=O)[C@@H](N)Cc1ccccc1)C(=O)N[C@@H](CO)C(=O)N[C@@H](CCC(=O)O)C(=O)O` [LCGA-17, PheGlnSerGlu] (H-FQSE-OH; N-terminus and C-terminus assumed), the in vivo half-life [9] is reported as “minutes”.
